This is an account of results in US9561231B2 (AbbVie Inc., priority 2012, dated 2017).

Test [1] deals with T1, first (BD1: amino acids K57-E168) bromodomain of BRD4 (Homo sapiens, UniProt O60885).
T1 construct: His-tagged first (BD1: amino acids K57-E168)
Put plainly: TR-FRET bromodomain binding assay, BRD4 BD1. The following applies: TR-FRET assay protocol (A-G, compound concentration range); Ki calculated from IC50, probe Kd and probe concentration; read-out: TR-FRET Binding Ki: BRD4 (BDI_K57-E168). The procedure: (§1) A time-resolved fluorescence resonance energy transfer (TR-FRET) assay was used to determine the affinities of compounds of the Examples listed in Table 1 for each bromodomain of BRD4. His-tagged first (BD1: amino acids K57-E168) and second (BD2: amino acids E352-E168) bromodomains of BRD4 were expressed and purified. An Alexa647-labeled BET-inhibitor was used as the fluorescent probe in the assay.
(§2) Compound dilution series were prepared in DMSO via an approximately 3-fold serial dilution from one of the following:
(§3) or 5-fold serial dilution from one of the following:
(§4) Assay method A: 2.5 mM-800 nM
(§5) For Assay methods A, C, D, and F: Compounds were then diluted 6:100 in assay buffer (20 mM Sodium Phosphate, pH 6.0, 50 mM NaCl, 1 mM Ethylenediaminetetraacetic acid, 0.01% Triton X-100, 1 mM DL-Dithiothreitol) to yield 3× working solutions. […] of this solution were added to the assay plate to reach a final volume of 18 μL.
(§6) TR-FRET data were normalized to the means of 24 no-compound controls (“high”) and 8 controls containing 1 μM un-labeled probe (“low”). Percent inhibition was plotted as a function of compound concentration and the data were fit with the 4 parameter logistic equation to obtain IC50s. Inhibition constants (Ki) were calculated from the IC50s, probe Kd and probe concentration. Typical Z′ values were between 0.65 and 0.75.

In test [2] the target is T2, second (BD2: amino acids E352-E168) bromodomain of BRD4 (Homo sapiens, UniProt O60885).
T2 construct: protocol
Briefly: TR-FRET bromodomain binding assay, BRD4 BD2. As to conditions: TR-FRET assay protocol (A-G, compound concentration range); Ki calculated from IC50, probe Kd and probe concentration; read-out: TR-FRET Binding Ki: BRD4 (BDII_E352-M457). The procedure:
as §1, §2, §3, §4, §5, §6

Broadly, the Ki is a dissociation constant, usually derived from enzyme kinetics or from competition with a known ligand. With `CN1CCC(c2cc(=O)n(C)nc2-c2ccccc2Oc2ccccc2)CC1` [Example 88, 2-methyl-5-(1-methylpiperidin-4-yl)-6-(2-phenoxyphenyl)pyridazin-3(2H)-one], in test [1], the Ki was 6790 nM.

`Cn1nc(-c2ccccc2Oc2ccccc2)c(-c2ccc(CC#N)cc2)cc1=O` [Example 94, {4-[1-methyl-6-oxo-3-(2-phenoxyphenyl)-1,6-dihydropyridazin-4-yl]phenyl}acetonitrile]: the inhibition constant Ki in test [1] was 402 nM; in test [2], 154 nM. For `Cc1nnc(-c2ccc(-c3cc(=O)n(C)nc3-c3ccccc3Oc3ccccc3)cc2)o1` [Example 91, 2-methyl-5-[4-(5-methyl-1,3,4-oxadiazol-2-yl)phenyl]-6-(2-phenoxyphenyl)pyridazin-3(2H)-one], the Ki in test [1] was > 238 nM; in test [2], 238 nM.

For the compound `CCN(CC)C(=O)c1ccc(-c2cc(=O)n(C)nc2-c2ccccc2Oc2ccccc2)cc1` [Example 158, N,N-diethyl-4-[1-methyl-6-oxo-3-(2-phenoxyphenyl)-1,6-dihydropyridazin-4-yl]benzamide], the inhibitory constant (Ki) in test [1] is 604 nM; in test [2], 529 nM. As to `Cn1cccc1-c1cc(=O)n(C)nc1-c1ccccc1Oc1ccccc1` [Example 194, 2-methyl-5-(1-methyl-1H-pyrrol-2-yl)-6-(2-phenoxyphenyl)pyridazin-3(2H)-one], the Ki in test [2] was 1430 nM. Take `CCS(=O)(=O)Nc1ccc(Oc2ccc(F)cc2F)c(-c2cn(C)c(=O)cc2-c2cscc2C=O)c1` [Example 332, N-{4-(2,4-difluorophenoxy)-3-[4-(4-formylthiophen-3-yl)-1-methyl-6-oxo-1,6-dihydropyridin-3-yl]phenyl}ethanesulfonamide]: the inhibitory constant (Ki) in test [1] is 1010 nM; in test [2], 205 nM.

As to `CC(=O)Nc1cncc(-c2cc(=O)n(C)nc2-c2ccccc2Oc2ccccc2)c1` [Example 121, N-{5-[1-methyl-6-oxo-3-(2-phenoxyphenyl)-1,6-dihydropyridazin-4-yl]pyridin-3-yl}acetamide], the inhibition constant (Ki) in test [1] is 1120 nM; in test [2], 2960 nM.

Turning to `COc1cc(=O)n(C)nc1-c1cccc(NS(C)(=O)=O)c1` [Example 19, N-[3-(4-methoxy-1-methyl-6-oxo-1,6-dihydropyridazin-3-yl)phenyl]methanesulfonamide], the inhibition constant (Ki) in test [1] is 8850 nM; in test [2], 8580 nM.

Consider `COC(=O)C1CCN(c2cc(=O)n(C)nc2-c2ccccc2Oc2ccccc2)C1` (centres unmarked) [Example 48, methyl 1-[1-methyl-6-oxo-3-(2-phenoxyphenyl)-1,6-dihydropyridazin-4-yl]pyrrolidine-3-carboxylate], for which the inhibitory constant (Ki) in test [1] was 9440 nM; in test [2], 1080 nM. With `COc1cc(=O)n(C)nc1-c1ccccc1Oc1ccc(C#N)cc1` [Example 32, 4-[2-(4-methoxy-1-methyl-6-oxo-1,6-dihydropyridazin-3-yl)phenoxy]benzonitrile], the inhibitory constant (Ki) is 5320 nM in test [1] and 12200 nM in test [2]. For `Cc1ccc(-c2cc(=O)n(C)nc2-c2ccccc2Oc2ccccc2)cc1N` [Example 64, 5-(3-amino-4-methylphenyl)-2-methyl-6-(2-phenoxyphenyl)pyridazin-3(2H)-one], the Ki is 448 nM in test [1] and 507 nM in test [2]. Turning to `Cn1cc(-c2cc(S(C)(=O)=O)ccc2NCC2CC2)c(OC(C)(C)C(C)(C)O)cc1=O` [Example 341, 5-{2-[(cyclopropylmethyl)amino]-5-(methylsulfonyl)phenyl}-4-[(3-hydroxy-2,3-dimethylbutan-2-yl)oxy]-1-methylpyridin-2(1H)-one], the Ki in test [1] is > 2380 nM; in test [2] it was > 4080 nM.

On to `COC(=O)c1ccc(-c2cc(=O)n(C)nc2-c2ccccc2Oc2ccccc2)cc1` [Example 102, methyl 4-[1-methyl-6-oxo-3-(2-phenoxyphenyl)-1,6-dihydropyridazin-4-yl]benzoate], for which the figures for the Ki in test [1] and in test [2] were 2600 nM and 960 nM, respectively. For `CCS(=O)(=O)Nc1ccc(Oc2ccc(OC3CCN(C(=O)OC(C)(C)C)CC3)cc2F)c(-c2cn(C)c(=O)cc2OC2CCN(C(=O)OC(C)(C)C)CC2)c1` [Example 320, tert-butyl 4-[(5-{2-(4-{[1-(tert-butoxycarbonyl)piperidin-4-yl]oxy}-2-fluorophenoxy)-5-[(ethylsulfonyl)amino]phenyl}-1-methyl-2-oxo-1,2-dihydropyridin-4-yl)oxy]piperidine-1-carboxylate], the Ki in test [1] was > 2380 nM; in test [2], 275 nM. Turning to `COc1cc(-c2cc(=O)n(C)nc2-c2ccccc2Oc2ccccc2)ccc1F` [Example 199, 5-(4-fluoro-3-methoxyphenyl)-2-methyl-6-(2-phenoxyphenyl)pyridazin-3(2H)-one], the figures for the Ki in test [1] and in test [2] were > 13000 nM and 5660 nM, respectively.

In the case of `Cn1nc(-c2ccccc2Oc2ccccc2)c(-c2ccc3c(c2)OCCO3)cc1=O` [Example 133, 5-(2,3-dihydro-1,4-benzodioxin-6-yl)-2-methyl-6-(2-phenoxyphenyl)pyridazin-3(2H)-one], the Ki in test [1] was 782 nM; in test [2] it was 159 nM. On to `CCOc1cc(=O)n(C)cc1-c1cc(NC(=O)C2(c3ccccc3)CC2)ccc1Oc1ccc(F)cc1F` [Example 299, N-[4-(2,4-difluorophenoxy)-3-(4-ethoxy-1-methyl-6-oxo-1,6-dihydropyridin-3-yl)phenyl]-1-phenylcyclopropanecarboxamide], for which the Ki in test [1] was 149 nM; in test [2], 35.2 nM. `CN(C)C(=O)c1cccc(-c2cc(=O)n(C)nc2-c2ccccc2Oc2ccccc2)c1` [Example 109, N,N-dimethyl-3-[1-methyl-6-oxo-3-(2-phenoxyphenyl)-1,6-dihydropyridazin-4-yl]benzamide]: the results for the inhibitory constant (Ki) in test [1] and in test [2] were 1260 nM and 1530 nM, respectively.

For `CN(C)CCNC(=O)c1cccc(-c2cc(=O)n(C)nc2-c2ccccc2Oc2ccccc2)c1` [Example 186, N-[2-(dimethylamino)ethyl]-3-[1-methyl-6-oxo-3-(2-phenoxyphenyl)-1,6-dihydropyridazin-4-yl]benzamide], the Ki is 1320 nM in test [1] and 854 nM in test [2]. Taken in the same sequence, the figures for `COc1ccc(F)c(-c2cc(=O)n(C)nc2-c2ccccc2Oc2ccccc2)c1` [Example 210, 5-(2-fluoro-5-methoxyphenyl)-2-methyl-6-(2-phenoxyphenyl)pyridazin-3(2H)-one] were 9870 nM and 15200 nM. Take `Cc1cc(-c2cc(=O)n(C)nc2-c2ccccc2Oc2ccccc2)cnc1N1CCOCC1` [Example 166, 2-methyl-5-[5-methyl-6-(morpholin-4-yl)pyridin-3-yl]-6-(2-phenoxyphenyl)pyridazin-3(2H)-one]: the Ki in test [1] was 705 nM; in test [2] it was 1010 nM. For `COc1ccc(Oc2ccccc2-c2nn(C)c(=O)cc2OC)cc1` [Example 35, 5-methoxy-6-[2-(4-methoxyphenoxy)phenyl]-2-methylpyridazin-3(2H)-one], in that order: 2390 nM and 1080 nM. Turning to `CNS(=O)(=O)c1ccc(-c2cc(=O)n(C)nc2-c2ccccc2Oc2ccccc2)cc1` [Example 159, N-methyl-4-[1-methyl-6-oxo-3-(2-phenoxyphenyl)-1,6-dihydropyridazin-4-yl]benzenesulfonamide], the inhibitory constant (Ki) in test [1] was 5450 nM; in test [2], 8420 nM. On to `CN(C)C(=O)c1cc(F)cc(-c2cc(=O)n(C)nc2-c2ccccc2Oc2ccccc2)c1` [Example 152, 3-fluoro-N,N-dimethyl-5-[1-methyl-6-oxo-3-(2-phenoxyphenyl)-1,6-dihydropyridazin-4-yl]benzamide], for which the inhibitory constant (Ki) in test [1] was 6620 nM; in test [2], 7270 nM. In the case of `CN(C)C(=O)c1cncc(-c2cc(=O)n(C)nc2-c2ccccc2Oc2ccccc2)c1` [Example 215, N,N-dimethyl-5-[1-methyl-6-oxo-3-(2-phenoxyphenyl)-1,6-dihydropyridazin-4-yl]pyridine-3-carboxamide], the Ki in test [2] is 11800 nM. On to `CC(=O)N1CC=C(c2cc(=O)n(C)nc2-c2ccccc2Oc2ccccc2)CC1` [Example 84, 5-(1-acetyl-1,2,3,6-tetrahydropyridin-4-yl)-2-methyl-6-(2-phenoxyphenyl)pyridazin-3(2H)-one], for which the results for the inhibition constant (Ki) in test [1] and in test [2] were 1020 nM and 1010 nM, respectively. Taken in the same sequence, the figures for `CN(C(=O)c1cccc(-c2cc(=O)n(C)nc2-c2ccccc2Oc2ccccc2)c1)C1CCCCC1` [Example 148, N-cyclohexyl-N-methyl-3-[1-methyl-6-oxo-3-(2-phenoxyphenyl)-1,6-dihydropyridazin-4-yl]benzamide] were > 13000 nM and 19700 nM. For the compound `Cn1nc(-c2ccccc2Oc2ccccc2)c(-c2cncc(C(=O)NC3CCCC3)c2)cc1=O` [Example 145, N-cyclopentyl-5-[1-methyl-6-oxo-3-(2-phenoxyphenyl)-1,6-dihydropyridazin-4-yl]pyridine-3-carboxamide], the inhibition constant (Ki) in test [1] is > 13000 nM; in test [2], 10200 nM.
